According to patent publication US7786161B2, “Carboxylic acid derivatives and pharmaceutical agent comprising the same as active ingredient” (ONO Pharmaceutical Co., Ltd., priority 2001, dated 2010):

Assays:
Assay in all cases: Receptor-binding experiment using cells expressing prostanoid receptor subtypes (3H-PGE2 binding, CHO cell membrane)
EP1 receptor = molecular target: T1, EP1 receptor (Mus musculus, UniProt P35375); details: 3H-PGE2 (2.5 nM) binding inhibition, membrane of CHO cells expressing mouse EP1; Ki=IC50/(1+([C]/Kd))
T1 construct: expressed in transfected cells; host or cells: CHO cells
T1 sequence (P35375 1-405): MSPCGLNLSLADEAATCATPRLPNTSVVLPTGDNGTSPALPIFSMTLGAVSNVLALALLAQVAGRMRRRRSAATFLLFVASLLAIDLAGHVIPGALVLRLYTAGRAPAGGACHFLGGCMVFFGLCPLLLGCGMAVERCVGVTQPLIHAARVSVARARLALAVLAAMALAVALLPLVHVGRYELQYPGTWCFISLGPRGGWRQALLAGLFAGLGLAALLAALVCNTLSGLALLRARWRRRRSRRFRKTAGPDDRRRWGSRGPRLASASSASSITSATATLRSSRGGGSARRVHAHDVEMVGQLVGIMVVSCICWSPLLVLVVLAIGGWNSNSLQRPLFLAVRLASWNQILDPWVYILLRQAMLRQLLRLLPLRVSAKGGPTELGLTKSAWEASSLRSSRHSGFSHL
Protocol: (§1) The pharmacological activity is confirmed by the following receptor-binding experiment by using cells expressing prostanoid receptor subtypes. • (i) Receptor-binding experiment by using cells expressing prostanoid receptor subtypes In accordance with the method of Sugimoto et al. [J. Biol. Chem., 267, 6463-6466 (1992)], CHO cells respectively expressing prostanoid receptor subtypes (mouse EP1, EP2, EP3, and EP4) were prepared to give membrane preparations.
(§2) Each membrane fraction (50 μl) thus prepared and a reaction solution (150 μl) containing ^3H-PGE2 were incubated at room temperature for 1 hour. After ceasing the reaction with an ice-cooled buffer (3 ml), the bound ^3H-PGE2 was trapped in a glass filter (GF/B) by filtering with suction under reduced pressure. Then the bound radioactivity was measured with a liquid scintillator.
(§3) Kd value and Bmax value were determined by Scatchard plots [Ann. N.Y. Acad. Sci., 51, 660 (1949)]. Nonspecific bond was determined as bond in the presence of unlabeled PGE2 in excess (2.5 μM). The ^3H-PGE2-binding inhibitory effects of the invention compounds were measured by adding ^3H-PGE2 (2.5 nM) and the invention compounds at various concentrations. In every reaction, the following buffer was employed.
(§4) Buffer: potassium phosphate (10 mM, pH 6.0), EDTA (1 mM), MgCl2 (10 mM), NaCl (0.1 M).
(§5) The dissociation constant Ki (μM) of each compound was determined in accordance with the following formula. […] Ki=IC50/(1+([C]/Kd))

EP2 receptor = molecular target: T2, EP2 receptor (Mus musculus, UniProt Q62053); details: 3H-PGE2 (2.5 nM) binding inhibition, membrane of CHO cells expressing mouse EP2; Ki=IC50/(1+([C]/Kd))
T2 construct: expressed in transfected cells; host or cells: CHO cells
Protocol: as §1, §2, §3, §4, §5

EP3 receptor = molecular target: T3, EP3 receptor (Mus musculus, UniProt P30557); details: 3H-PGE2 (2.5 nM) binding inhibition, membrane of CHO cells expressing mouse EP3; Ki=IC50/(1+([C]/Kd))
T3 construct: expressed in transfected cells; host or cells: CHO cells
T3 sequence (P30557 1-365): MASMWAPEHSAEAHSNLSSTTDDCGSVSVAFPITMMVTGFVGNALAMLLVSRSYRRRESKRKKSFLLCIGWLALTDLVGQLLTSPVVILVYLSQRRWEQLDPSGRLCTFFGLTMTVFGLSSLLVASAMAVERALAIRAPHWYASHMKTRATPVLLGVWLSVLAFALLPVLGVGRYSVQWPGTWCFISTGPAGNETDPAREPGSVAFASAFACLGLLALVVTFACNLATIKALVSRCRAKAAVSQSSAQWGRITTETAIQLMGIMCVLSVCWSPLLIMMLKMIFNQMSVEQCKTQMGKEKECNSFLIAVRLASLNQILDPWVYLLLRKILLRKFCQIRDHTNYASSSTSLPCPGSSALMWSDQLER
Protocol: as §1, §2, §3, §4, §5

EP4 receptor = molecular target: T4, EP4 receptor (Mus musculus, UniProt P32240); details: 3H-PGE2 (2.5 nM) binding inhibition, membrane of CHO cells expressing mouse EP4; Ki=IC50/(1+([C]/Kd))
T4 construct: expressed in transfected cells; host or cells: CHO cells
Protocol: as §1, §2, §3, §4, §5

T2 sequence (Q62053 whole entry): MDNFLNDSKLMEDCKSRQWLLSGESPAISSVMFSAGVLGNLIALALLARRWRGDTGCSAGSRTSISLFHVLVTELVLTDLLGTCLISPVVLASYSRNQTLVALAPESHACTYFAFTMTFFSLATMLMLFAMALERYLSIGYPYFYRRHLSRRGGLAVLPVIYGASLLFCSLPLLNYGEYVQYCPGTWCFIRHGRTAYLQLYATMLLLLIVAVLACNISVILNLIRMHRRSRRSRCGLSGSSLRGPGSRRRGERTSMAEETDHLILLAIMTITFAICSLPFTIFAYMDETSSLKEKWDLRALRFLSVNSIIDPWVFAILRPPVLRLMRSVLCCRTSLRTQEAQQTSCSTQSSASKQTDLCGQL
T4 sequence (P32240 whole entry): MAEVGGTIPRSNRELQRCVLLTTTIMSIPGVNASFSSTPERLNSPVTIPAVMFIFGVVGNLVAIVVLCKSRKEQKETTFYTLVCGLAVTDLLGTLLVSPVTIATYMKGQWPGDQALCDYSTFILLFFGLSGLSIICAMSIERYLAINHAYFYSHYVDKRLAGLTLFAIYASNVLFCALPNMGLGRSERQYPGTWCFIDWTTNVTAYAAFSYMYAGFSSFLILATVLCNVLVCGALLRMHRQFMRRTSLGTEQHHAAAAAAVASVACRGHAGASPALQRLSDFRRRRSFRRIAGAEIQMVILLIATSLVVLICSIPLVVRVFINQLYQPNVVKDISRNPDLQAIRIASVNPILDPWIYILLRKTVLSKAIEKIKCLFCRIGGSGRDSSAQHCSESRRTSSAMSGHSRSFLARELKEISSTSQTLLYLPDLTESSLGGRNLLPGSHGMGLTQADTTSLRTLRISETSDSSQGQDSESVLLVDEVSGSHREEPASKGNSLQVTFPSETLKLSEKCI

## CSCc1ccc(CCCC(=O)O)c(NC(=O)C(C)c2cccc3ccccc23)c1 (stereo not shown) [Example 8(13), 4-(2-((2-(naphthalen-1-yl)propanoyl)amino)-4-methylthiomethylphenyl)butanoic acid]
EP1 receptor
  Ki: > 10000 nM
EP2 receptor
  Ki: > 10000 nM
EP3 receptor
  Ki: 270 nM
EP4 receptor
  Ki: 38 nM
